# pIC50: −log10 of the molar value. Read-outs that look alike come from different tables or passages of the source.
# Columns and labels:
# [1] = target: full-length human PRMT8 isoform 1 (Homo sapiens, UniProt Q9NR22); experiment: PRMT8 Biochemical Assay (3H-SAM Flashplate, peptide substrate); settings: read-out: Biochemical IC50 PRMT8
# Description: (§1) General Materials. S-adenosylmethionine (SAM), S-adenosylhomocysteine (SAH), bicine, Tween20, dimethylsulfoxide (DMSO), bovine skin gelatin (BSG), isopropyl-β-D-thiogalactopyranoside (IPTG), and Tris(2-carboxyethyl)phosphine hydrochloride solution (TCEP) were purchased from Sigma-Aldrich at the highest level of purity possible. ^3H-SAM was purchase from American Radiolabeled Chemicals with a specific activity of 80 Ci/mmol. 384-well streptavidin Flashplates were purchased from PerkinElmer.
# Substrates. Peptide representative of human histone H4 residues 31-45 was synthesized with an N-terminal linker-affinity tag motif and a C-terminal amide cap by 21st Century Biochemicals. The peptide was purified by high-performance liquid chromatography (HPLC) to greater than 95% purity and confirmed by liquid chromatography mass spectrometry (LC-MS). The sequence was Biot-Ahx-[…]-amide (SEQ ID NO.:8).
# The resulting construct encodes an N-terminal GST tag and a thrombin cleavage sequence ([…] […] […] […] SPEF) (SEQ ID NO.:9) fused directly to Met 1 of PRMT8.
# Protein Expression. E. coli (BL21(DE3) Gold, Stratagene) made competent by the CaCl2) method were transformed with the PRMT8 construct and ampicillin selection. Protein over-expression was accomplished by growing the PRMT8 expressing E. coli clone and inducing expression with 0.3 mM IPTG at 16° C. The culture was grown for 12 hours, harvested by centrifugation, and stored at −80° C. for purification.
# Protein Purification. […] GST-tagged PRMT8 was eluted with 50 mM Tris, 2 mM glutathione, pH 7.8. Pooled fractions were cleaved by thrombin (10U) and dialysed in buffer A. GST was removed by reloading the cleaved protein sample onto glutathione sepharose column and PRMT8 was collected in the flow-through fractions. PRMT8 was purified further by ceramic hydroxyapatite chromatography. The column was washed with 50 mM phosphate buffer, 100 mM NaCl, 5% glycerol, 5 mM β-mercaptoethanol, pH 7.8 and PRMT8 was eluted by 100 mM phosphate in the same buffer. Protein was concentrated and buffer was exchanged to 50 mM Tris, 300 mM NaCl, 10% glycerol, 5 mM β-mercaptoethanol, pH 7.8 by ultrafiltration. The purity of recovered protein was 89%.
# General Procedure for PRMT8 Enzyme Assays on Peptide Substrates. The assays were all performed in a buffer consisting of 20 mM Bicine (pH=7.6), 1 mM TCEP, 0.005% BSG, and 0.002% Tween 20, prepared on the day of use. Compounds in 100% DMSO (1 ul) were spotted into a polypropylene 384-well V-bottom plates (Greiner) using a Platemate Plus outfitted with a 384-channel head (Thermo Scientific). DMSO (1 ul) was added to Columns 11, 12, 23, 24, rows A-H for the maximum signal control and 1 ul of SAH, a known product and inhibitor of PRMT8, was added to columns 11, 12, 23, 24, rows I-P for the minimum signal control. A cocktail (40 ul) containing the PRMT8 enzyme was added by Multidrop Combi (Thermo-Fisher). The compounds were allowed to incubate with PRMT8 for 30 min at room temperature, then a cocktail (10 ul) containing ^3H-SAM and peptide was added to initiate the reaction (final volume=51 ul). The final concentrations of the components were as follows: PRMT8 was 1.5 nM, ^3H-SAM was 50 nM, non-radiolabeled SAM was 550 nM, peptide was 150 nM, SAH in the minimum signal control wells was 1 mM, and the DMSO concentration was 2%. The assays were stopped by the addition of non-radiolabeled SAM (10 ul) to a final concentration of 400 uM, which dilutes the ^3H-SAM to a level where its incorporation into the peptide substrate is no longer detectable. 50 ul of the reaction in the 384-well polypropylene plate was then transferred to a 384-well Flashplate and the biotinylated peptides were allowed to bind to the streptavidin surface for at least 1 hour before being washed once with 0.1% Tween20 in a Biotek ELx405 plate washer. […]
# [2] = target: full-length human PRMT1 isoform 1 (GST-tagged) (Homo sapiens, UniProt Q99873); experiment: PRMT1 Biochemical Assay (3H-SAM Flashplate, peptide substrate)
# Chain of full-length human PRMT1 isoform 1 (GST-tagged) (Q99873 with tags, fused parts or gaps): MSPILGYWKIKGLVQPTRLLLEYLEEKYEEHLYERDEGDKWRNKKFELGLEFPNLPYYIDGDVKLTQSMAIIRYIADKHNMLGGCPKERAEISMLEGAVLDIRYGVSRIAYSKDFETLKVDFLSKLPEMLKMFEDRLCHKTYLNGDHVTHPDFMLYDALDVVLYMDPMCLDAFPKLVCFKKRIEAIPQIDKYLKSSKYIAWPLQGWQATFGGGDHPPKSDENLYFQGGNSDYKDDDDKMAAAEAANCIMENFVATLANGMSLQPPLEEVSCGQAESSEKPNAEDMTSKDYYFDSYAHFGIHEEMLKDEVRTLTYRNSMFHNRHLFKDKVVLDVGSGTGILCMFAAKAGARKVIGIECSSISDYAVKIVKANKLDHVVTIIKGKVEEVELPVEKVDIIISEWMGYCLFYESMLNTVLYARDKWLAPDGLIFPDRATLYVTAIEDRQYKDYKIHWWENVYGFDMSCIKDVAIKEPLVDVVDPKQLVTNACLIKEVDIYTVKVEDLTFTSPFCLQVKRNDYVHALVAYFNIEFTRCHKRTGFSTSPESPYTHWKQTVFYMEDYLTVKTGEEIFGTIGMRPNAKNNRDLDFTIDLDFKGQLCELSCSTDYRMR
# Description: as §1, with “(BSG),” for “(BSG), isopropyl-β-D-thiogalactopyranoside (IPTG),”
# Protein Expression. Recombinant baculovirus were generated according to Bac-to-Bac kit instructions (Life Technologies). […] Infections were carried out at 27° C. for 48 hours, harvested by centrifugation, and stored at −80° C. for purification.
# Protein Purification. […] GST-tagged PRMT1 was eluted with 50 mM Tris, 2 mM glutathione, pH 7.8, dialysed in buffer A and concentrated to 1 mg/mL.
# General Procedure for PRMT1 Enzyme Assays on Peptide Substrates. The assays were all performed in a buffer consisting of 20 mM Bicine (pH=7.6), 1 mM TCEP, 0.005% BSG, and 0.002% Tween 20, prepared on the day of use. […] DMSO (1 ul) was added to Columns 11, 12, 23, 24, rows A-H for the maximum signal control and 1 ul of SAH, a known product and inhibitor of PRMT1, was added to columns 11, 12, 23, 24, rows I-P for the minimum signal control. A cocktail (40 ul) containing the PRMT1 enzyme was added by Multidrop Combi (Thermo-Fisher). The compounds were allowed to incubate with PRMT1 for 30 min at room temperature, then a cocktail (10 ul) containing SAM and peptide was added to initiate the reaction (final volume=51 ul). […] The assays were stopped by the addition of non-radiolabeled SAM (10 ul) to a final concentration of 300 uM, which dilutes the ^3H-SAM to a level where its incorporation into the peptide substrate is no longer detectable. 50 ul of the reaction in the 384-well polypropylene plate was then transferred to a 384-well Flashplate and the biotinylated peptides were allowed to bind to the streptavidin surface for at least 1 hour before being washed once with 0.1% Tween20 in a Biotek ELx405 plate washer. The plates were then read in a PerkinElmer TopCount plate reader to measure the quantity of ^3H-labeled peptide bound to the Flashplate surface, measured as disintegrations per minute (dpm) or alternatively, referred to as counts per minute (cpm).
# Where dpm=disintegrations per minute, cmpd=signal in assay well, and min and max are the respective minimum and maximum signal controls.
# Where top and bottom are the normally allowed to float, but may be fixed at 100 or 0 respectively in a 3-parameter fit. The Hill Coefficient normally allowed to float but may also be fixed at 1 in a 3-parameter fit. Y is the % inhibition and X is the compound concentration.
# [3] = single experiment or average of multiple experiments
# Chain of full-length human PRMT8 isoform 1 (Q9NR22 whole entry, canonical isoform): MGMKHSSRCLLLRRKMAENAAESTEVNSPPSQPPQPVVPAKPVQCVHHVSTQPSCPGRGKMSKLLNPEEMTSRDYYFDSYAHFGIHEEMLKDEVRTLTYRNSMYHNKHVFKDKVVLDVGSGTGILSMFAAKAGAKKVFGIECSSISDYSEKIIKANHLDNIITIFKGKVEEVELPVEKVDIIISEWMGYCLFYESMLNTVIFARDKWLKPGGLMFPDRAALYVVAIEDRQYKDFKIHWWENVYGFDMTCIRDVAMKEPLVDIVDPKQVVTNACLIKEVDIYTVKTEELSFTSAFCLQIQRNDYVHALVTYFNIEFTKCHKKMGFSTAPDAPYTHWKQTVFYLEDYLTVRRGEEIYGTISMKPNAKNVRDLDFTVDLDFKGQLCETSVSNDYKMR
pIC50 [1],"pIC50 [1, 3]",pIC50 [2],"pIC50 [2, 3]",Compound
> 7.00,8.09,> 7.00,8.28,CNCCN(C)Cc1c[nH]nc1[C@H]1CC[C@]2(CCN(Cc3ccccc3)C2=O)CC1 [Compound 128]
> 7.00,7.08,> 7.00,7.63,CNCCN(C)Cc1c[nH]nc1[C@H]1CC[C@@]2(CCN(CC(C)C)C2=O)CC1 [Compound 129]
> 7.00,8.35,> 7.00,8.47,CNCCN(C)Cc1c[nH]nc1C1CCC2(CC1)CCC(F)(F)CC2 [Compound 130]
5.52 to 6.00,5.71,6.00 to 7.00,6.57,CCCOC1CC(OCCC)CC(c2n[nH]cc2CN(C)CCNC)C1 (stereo not shown) [Compound 131]
5.00 to 5.52,5.36,6.00 to 7.00,6.20,CCOC1CC(OCC)CC(c2n[nH]cc2CN(C)CCNC)C1 (stereo not shown) [Compound 132]
> 7.00,8.17,> 7.00,8.54,CNCCN(C)Cc1c[nH]nc1C1CCC(OCCOc2ccccc2)CC1 (stereo not shown) [Compound 136]
> 7.00,7.79,> 7.00,8.14,CNCCN(C)Cc1c[nH]nc1C1CCC2(CCCCO2)CC1 (stereo not shown) [Compound 137]
5.52 to 6.00,5.84,6.00 to 7.00,6.46,CNCCN(C)Cc1c[nH]nc1C1CC(COC)CC(COC)C1 (stereo not shown) [Compound 138]
6.00 to 7.00,6.94,> 7.00,7.52,CNCCN(C)Cc1c[nH]nc1[C@H]1CC[C@H](OC2CCCCC2)CC1 [Compound 139]
> 7.00,7.47,> 7.00,7.81,CNCCN(C)Cc1c[nH]nc1[C@H]1CC[C@@H](OC2CCCCC2)CC1 [Compound 140]
> 7.00,7.53,> 7.00,7.97,CNCCN(C)Cc1c[nH]nc1[C@H]1CC[C@@]2(CCOC2)CC1 [Compound 141]
> 7.00,7.80,> 7.00,8.14,CNCCN(C)Cc1c[nH]nc1[C@H]1CC[C@]2(CCOC2)CC1 [Compound 142]
> 7.00,7.48,> 7.00,7.97,CNCCN(C)Cc1c[nH]nc1[C@H]1CC[C@@]2(CCCO2)CC1 [Compound 143]
> 7.00,7.11,> 7.00,7.67,CNCCN(C)Cc1c[nH]nc1C1CCC2(CC1)CC2 [Compound 144]
> 7.00,7.43,> 7.00,7.59,CNCCN(C)Cc1c[nH]nc1C1CCC2(CC1)C(=O)NC(=O)N2C (stereo not shown) [Compound 161]
> 7.00,7.03,> 7.00,7.41,CCN1C(=O)N(C)CC12CCC(c1n[nH]cc1CN(C)CCNC)CC2 (stereo not shown) [Compound 162]
> 7.00,7.80,> 7.00,7.76,CNCCN(C)Cc1c[nH]nc1C1CCC2(CC1)CCN(CCC(C)C)C2=O (stereo not shown) [Compound 163]
> 7.00,7.72,> 7.00,7.71,CNCCN(C)Cc1c[nH]nc1C1CCC2(CC1)CCN(CC(C)C)C2=O (stereo not shown) [Compound 164]
> 7.00,7.74,> 7.00,7.75,CNCCN(C)Cc1c[nH]nc1C1CCC2(CC1)CC(=O)N(CCC(C)C)C2 (stereo not shown) [Compound 165]
> 7.00,7.64,> 7.00,7.74,CNCCN(C)Cc1c[nH]nc1[C@H]1CC[C@@H](COC)CC1 [Compound 166]
> 7.00,7.89,> 7.00,7.96,CNCCN(C)Cc1c[nH]nc1[C@H]1CC[C@H](COC)CC1 [Compound 167]
> 7.00,7.55,> 7.00,7.70,CCOC1CC2(CCC(c3n[nH]cc3CN(C)CCNC)CC2)CC1OCC (stereo not shown) [Compound 168]
